Like-named read-outs stand apart in the source and are kept apart here.
What was measured:
[1] = tested on: H1975 cells; assay: Cell proliferation and growth inhibition assay (CCK-8) in H1975; format: cell-based; details: treated with test compounds for 72 hrs, CCK-8 viability, read-out: EGFR IC50 in H1975
Protocol: MV-4-11 and H1975 cells were obtained from the American Type Culture Collection and KM12-luc cells were obtained from JCRB Cell Bank. All cell lines were maintained at 37° C. with 5% C02, in media supplemented with 10% fetal bovine serum and penicillin (100 units/mL) and streptomycin (100 μg/mL). MV-4-11 cells were maintained in Iscove's Modified Dubecco's Medium, H1975 cells were cultured with RPMI 1640 media, and KM12-luc cells were maintained in Dulbecco's Modification of Eagle's Medium. CCK-8 reagent was obtained from Yeasen.
Cell proliferation was assessed by CCK-8 assay (Yeasen) per the manufacturer's instructions. The MV-4-11 (AML), H1975, and KM12-luc cells were seeded at 30,000, 3,000 and 2,500 cells per well onto 96-well plates, and after a 24 h incubation, the cells were treated with test compounds for 72 hrs. Cell viability was assayed by incubating the cells with CCK-8 reagent for 1-4 hrs. Absorbance was measured at OD450 using the Beckman DTX880. The data was calculated using GraphPad Prism version 6.01. The IC50 values were fitted using a non-linear regression model with a sigmoidal dose response.

[2] = tested on: KM12-luc cells; assay: Cell proliferation and growth inhibition assay (CCK-8) in KM12-luc; format: cell-based; details: KM12-luc cells, treated with test compounds for 72 hrs, CCK-8 viability, read-out: NTRK IC50 in KM12-luc
Procedure, shortened: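 IC50 values were fitted by sigmoidal dose-response non-linear regression of CCK-8 OD450 absorbance after 1-4 hrs with reagent. Culture media were IMDM for MV-4-11, RPMI 1640 for H1975 and DMEM for KM12-luc, each with 10% FBS at 37 °C, 5% CO2.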

IC50 ([1]; Homo sapiens, NCI-H1975, 72 h) [nM]	Compound	also measured
406	CCC(=O)Nc1cc(Nc2nc(-c3c[nH]c4c(OC)cccc34)c3cc[nH]c3n2)ccc1N(C)CCN(C)C [Compound 518, N-(2-((2-(dimethylamino)ethyl)(methyl)amino)-5-((4-(7-methoxy-1H-indol-3-yl)-7H-pyrrolo[2,3-d]pyrimidin-2-yl)amino)phenyl)propionamide]	–
1180	CN(C)CCN(C)c1ccc(Nc2ncc(F)c(-c3c[nH]c4c(F)cccc34)n2)cc1N [Compound 520, N^1-(2-(dimethylamino)ethyl)-N^4-(5-fluoro-4-(7-fluoro-1H-indol-3-yl)pyrimidin-2-yl)-N-methylbenzene-1,2,4-triamine]	–
695	CC(=O)Nc1cc(Nc2ncc(F)c(-c3c[nH]c4c(F)cccc34)n2)ccc1N(C)CCN(C)C [Compound 521, N-(2-((2-(dimethylamino)ethyl)(methyl)amino)-5-((5-fluoro-4-(7-fluoro-1H-indol-3-yl)pyrimidin-2-yl)amino)phenyl)acetamide]	–
999	CCC(=O)Nc1cc(Nc2ncc(F)c(-c3c[nH]c4c(F)cccc34)n2)ccc1N(C)CCN(C)C [Compound 522, N-(2-((2-(dimethylamino)ethyl)(methyl)amino)-5-((5-fluoro-4-(7-fluoro-1H-indol-3-yl)pyrimidin-2-yl)amino)phenyl)propionamide]	–
425	Cc1cccc2c(-c3nc(Nc4ccc(N(C)CCN(C)C)c(N)c4)ncc3F)c[nH]c12 [Compound 524, N^1-(2-(dimethylamino)ethyl)-N^4-(5-fluoro-4-(7-methyl-1H-indol-3-yl)pyrimidin-2-yl)-N^1-methylbenzene-1,2,4-triamine]	–
406	CC(=O)Nc1cc(Nc2ncc(F)c(-c3c[nH]c4c(C)cccc34)n2)ccc1N(C)CCN(C)C [Compound 525, N-(2-((2-(dimethylamino)ethyl)(methyl)amino)-5-((5-fluoro-4-(7-methyl-1H-indol-3-yl)pyrimidin-2-yl)amino)phenyl)acetamide]	–
656	CCC(=O)Nc1cc(Nc2ncc(F)c(-c3c[nH]c4c(C)cccc34)n2)ccc1N(C)CCN(C)C [Compound 526, N-(2-((2-(dimethylamino)ethyl)(methyl)amino)-5-((5-fluoro-4-(7-methyl-1H-indol-3-yl)pyrimidin-2-yl)amino)phenyl)propionamide]	–
298	COc1cccc2c(-c3nc(Nc4ccc(N(C)CCN(C)C)c(N)c4)ncc3F)c[nH]c12 [Compound 528, N^1-(2-(dimethylamino)ethyl)-N^1-methyl-N^4-(5-fluoro-4-(7-methoxy-1H-indol-3-yl)pyrimidin-2-yl)benzene-1,2,4-triamine]	–
958	COc1cccc2c(-c3nc(Nc4ccc(N(C)CCN(C)C)c(NC(C)=O)c4)ncc3F)c[nH]c12 [Compound 529, N-(2-((2-(dimethylamino)ethyl)(methyl)amino)-5-((5-fluoro-4-(7-methoxy-1H-indol-3-yl)pyrimidin-2-yl)amino)phenyl)acetamide]	–
769	CCC(=O)Nc1cc(Nc2ncc(F)c(-c3c[nH]c4c(OC)cccc34)n2)ccc1N(C)CCN(C)C [Compound 530, N-(2-((2-(dimethylamino)ethyl)(methyl)amino)-5-((5-fluoro-4-(7-methoxy-1H-indol-3-yl)pyrimidin-2-yl)amino)phenyl)propionamide]	–
791	COc1cnc(Nc2ccc(N(C)CCN(C)C)c(N)c2)nc1-c1c[nH]c2c(C)cccc12 [Compound 532, N^1-(2-(dimethylamino)ethyl)-N^1-methyl-N^4-(5-methoxy-4-(7-methyl-1H-indol-3-yl)pyrimidin-2-yl)benzene-1,2,4-triamine]	–
1110	COc1cnc(Nc2ccc(N(C)CCN(C)C)c(NC(C)=O)c2)nc1-c1c[nH]c2c(C)cccc12 [Compound 533, N-(2-((2-(dimethylamino)ethyl)(methyl)amino)-5-((5-methoxy-4-(7-methyl-1H-indol-3-yl)pyrimidin-2-yl)amino)phenyl)acetamide]	–
1300	CCC(=O)Nc1cc(Nc2ncc(OC)c(-c3c[nH]c4c(C)cccc34)n2)ccc1N(C)CCN(C)C [Compound 534, N-(2-((2-(dimethylamino)ethyl)(methyl)amino)-5-((5-methoxy-4-(7-methyl-1H-indol-3-yl)pyrimidin-2-yl)amino)phenyl)propionamide]	–
837	COc1cnc(Nc2ccc(N(C)CCN(C)C)c(N)c2)nc1-c1c[nH]c2c(OC)cccc12 [Compound 536, N^1-(2-(dimethylamino)ethyl)-N^1-methyl-N^4-(5-methoxy-4-(7-methoxy-1H-indol-3-yl)pyrimidin-2-yl)benzene-1,2,4-triamine]	–
–	COc1cnc(Nc2ccc(N(C)CCN(C)C)c(NC(C)=O)c2)nc1-c1c[nH]c2c(C)cccc12 [Compound 537, N-(2-((2-(dimethylamino)ethyl)(methyl)amino)-5-((5-methoxy-4-(7-methyl-1H-indol-3-yl)pyrimidin-2-yl)amino)phenyl)acetamide]	IC50 [1]: 1080 nM
3680	CCC(=O)Nc1cc(Nc2ncc(OC)c(-c3c[nH]c4c(OC)cccc34)n2)ccc1N(C)CCN(C)C [Compound 538, N-(2-((2-(dimethylamino)ethyl)(methyl)amino)-5-((5-methoxy-4-(7-methoxy-1H-indol-3-yl)pyrimidin-2-yl)amino)phenyl)propionamide]	–
95.4	CCC(=O)Nc1cc(Nc2ncc(C(F)(F)F)c(-c3c[nH]c4c(F)cccc34)n2)ccc1N(C)CCN(C)C [Compound 540, N-(2-((2-(dimethylamino)ethyl)(methyl)amino)-5-((4-(7-fluoro-1H-indol-3-yl)-5-(trifluoromethyl)pyrimidin-2-yl)amino)phenyl)propionamide]	–
–	COc1cccc2c(-c3ncc(C(F)(F)F)c(Nc4ccc(N5CC[C@H](N(C)C)C5)c(NC(C)=O)c4)n3)c[nH]c12 [Compound S-382b, (S)—N-(2-(3-(dimethylamino)pyrrolidin-1-yl)-5-((2-(7-methoxy-1H-indol-3-yl)-5-(trifluoromethyl)pyrimidin-4-yl)amino)phenyl)acetamide]	IC50 ([2]; KM12-Luc, 72 h): 349 nM
–	COc1cccc2c(-c3nc(Nc4ccc(N5CC[C@H](N(C)C)C5)c(N)c4)ncc3C(F)(F)F)cn(C)c12 [Compound S-390, (S)-4-(3-(dimethylamino)pyrrolidin-1-yl)-N^1-(4-(7-methoxy-1-methyl-1H-indol-3-yl)-5-(trifluoromethyl)pyrimidin-2-yl)benzene-1,3-diamine]	IC50 ([2]; KM12-Luc, 72 h): 44.6 nM
–	CC(=O)Nc1cc(Nc2ncc(Cl)c(-c3c[nH]c4c(F)cccc34)n2)ccc1N1CC[C@H](N(C)C)C1 [Compound S-409, (S)—N-(5-((5-chloro-4-(7-fluoro-1H-indol-3-yl)pyrimidin-2-yl)amino)-2-(3-(dimethylamino)pyrrolidin-1-yl)phenyl)acetamide]	IC50 ([2]; KM12-Luc, 72 h): 24.6 nM
–	CN(C)[C@H]1CCN(c2ccc(Nc3ncc(Cl)c(-c4c[nH]c5c(F)cccc45)n3)cc2N)C1 [Compound S-414, (S)—N^1-(5-chloro-4-(7-fluoro-1H-indol-3-yl)pyrimidin-2-yl)-4-(3-(dimethylamino)pyrrolidin-1-yl)benzene-1,3-diamine]	IC50 ([2]; KM12-Luc, 72 h): 50.1 nM
–	CC(=O)Nc1cc(Nc2ncc(Cl)c(-c3cn(C)c4c(F)cccc34)n2)ccc1N1CC[C@H](N(C)C)C1 [Compound S-415, (S)—N-(5-((5-chloro-4-(7-fluoro-1-methyl-1H-indol-3-yl)pyrimidin-2-yl)amino)-2-(3-(dimethylamino)pyrrolidin-1-yl)phenyl)acetamide]	IC50 ([2]; KM12-Luc, 72 h): 155 nM
–	CN(C)[C@H]1CCN(c2ccc(Nc3ncc(Cl)c(-c4cn(C)c5c(F)cccc45)n3)cc2N)C1 [Compound S-420, (S)—N^1-(5-chloro-4-(7-fluoro-1-methyl-1H-indol-3-yl)pyrimidin-2-yl)-4-(3-(dimethylamino)pyrrolidin-1-yl)benzene-1,3-diamine]	IC50 ([2]; KM12-Luc, 72 h): 261 nM
–	Cc1cccc2c(-c3nc(Nc4ccc(N5CC[C@H](N(C)C)C5)c(N)c4)ncc3Cl)cn(C)c12 [Compound S-431, (S)—N-(5-chloro-4-(1,7-dimethyl-1H-indol-3-yl)pyrimidin-2-yl)-4-(3-(dimethylamino)pyrrolidin-1-yl)benzene-1,3-diamine]	IC50 [2]: 39.6 nM
–	CC(=O)Nc1cc(Nc2ncc(Cl)c(-c3cn(C)c4c(C)cccc34)n2)ccc1N1CC[C@H](N(C)C)C1 [Compound S-432, (S)—N-(5-((5-chloro-4-(1,7-dimethyl-1H-indol-3-yl)pyrimidin-2-yl)amino)-2-(3-(dimethylamino)pyrrolidin-1-yl)phenyl)acetamide]	IC50 [2]: 22.4 nM
–	COc1cccc2c(-c3nc(Nc4ccc(N5CC[C@H](N(C)C)C5)c(N)c4)ncc3Cl)cn(C)c12 [Compound S-439, (S)—N^1-(5-chloro-4-(7-methoxy-1-methyl-1H-indol-3-yl)pyrimidin-2-yl)-4-(3-(dimethylamino)pyrrolidin-1-yl)benzene-1,3-diamine]	IC50 ([2]; KM12-Luc, 72 h): 150 nM

Source: US20250136576A1, “Heterocyclic Compounds and Uses Thereof” (ACEA Therapeutics, Inc., priority 2021, published 2025)
